Results from patent US20020110838A1, “Methods for assessing muscle protein wasting and therapeutics therefor” (priority 2000, published 2002).
Entries after “also recorded” stand apart in the source; their conditions may differ. Where a SMILES comes first, the peptide text is derived from it. The star is where a group is joined. Cbz = O=C(OCc1ccccc1)*

What was measured:
14 kDa actin fragment [1] = assay: Actin cleavage in L6 cell extracts incubated at 37° C. (immunoblot of 14 kDa actin fragment); assay type: biochemical, rat
Experimental: The cell extracts were incubated at 37° C. for various times before proteins were separated and subjected to Western blot analysis using commercially available, affinity-purified, polyclonal antibodies directed against the carboxy-terminus of actin.
To support this conclusion, we incubated lysates of L6 muscle cells at 37° C. with recombinant caspase 3 and then used Western blotting and detected the appearance of the actin fragment.
To test for involvement of the proteasome, we added MG132, an inhibitor of proteasome activity (ProScript, Inc. Cambridge, Mass.), and ATP to cell extracts before the 3 hr incubation at 37° C..
L6 muscles cells were washed and collected in ice cold PBS. Cells were swelled in hypotonic buffer (5 mM Tris pH 8.0, 1 mM 2-mercaptoethanol, 1% glycerol, 1 mM EDTA, 1 mM EGTA containing 0.1 mM phenylmethanesulfonyl fluoride (PMSF), leupeptin (5 μg/ml) and aprotinin (5 μg/ml) on ice for 30 minutes, and the cells were then gently homogenized with twenty strokes of a dounce homogenizer, with the materials being kept on ice. Homogenates were centrifuged at 3500 rpm (about 2000×g) for 10 minutes to remove nuclei and cell debris.
To assess for proteolytic cleavage of actin, extracts (20 μg of total protein) were incubated in 20 μl reaction volumes containing 25 mM Hepes (pH 7.5), 5 mM EDTA, 5 mM DTT for 3 h at 37° C. Reactions were terminated by adding Laemmli sample buffer, proteins were separated by SDS-PAGE, and immunoblot detection of actin fragments was carried out with an anti-actin antibody (Sigma).
The proteins were then transferred to ECL hybond membranes, and blots were incubated with anti-actin antibodies (1:500 dilution) in 5% milk in TTBS for 2 hours at 37° C. Bound primary antibodies were detected with goat anti-rabbit IgG antibody conjugated with HRRP and analyzed with ECL Detection Kit.

14 kDa actin fragment [2] = assay: 14 kDa actin peptide in intact L6 cells, measured after lysis; assay type: cell-based, rat; design: 14 kDa actin peptide in intact L6 cells activated with staurosporine and treated with proteasome inhibitor: dose or concentration left out as unconfirmed
Experimental: Actin cleavage was measured in lysates immediately after lysis.
This fragment (and others) are then rapidly degraded by the ubiquitin-proteasome system. […] The cells were then lysed and tested for the presence of the 14 kDa actin peptide.

L6 muscle cells [3] = assay: Degradation of endogenous proteins in cell extracts (release of free tyrosine); assay type: cell-based, rat; conditions: 50 nM staurosporine 3 h; extracts 37° C. 3 h; exogenous ATP added
Experimental: L6 muscle cells were treated as marked, and lysates were incubated at 37° C. for 3 hours in the presence or absence of ATP (2 mM). Degradation of endogenous protein was monitored by measuring release of acid-soluble tyrosine from cell protein.
With this method, protein degradation in extracts of control cells was slightly less than that in extracts from staurosporine-treated cells. However, the 3 hour incubation at 37° C. could limit ATP and impair activity of the ubiquitin-proteasome system.
Protein degradation in cell extracts was assessed by measuring the net release of free tyrosine because muscles neither synthesizes nor degrades this amino acid (18,19). For 3 hours, 50 μg of cell extract proteins were incubated at 37° C. in 0.1 ml of reaction buffer (20 mM Tris (pH 7.6), 2 mM DTT, 10 mM MgCl2, 100 mM KCl, 5% glycerol) with or without 2 MM ATP.
Trichloroacetic acid (10% final concentration) was added and the amount of free tyrosine released from proteins was measured spectrofluorometrically. Alternatively, total cell protein can be labeled by growth in the presence of one or more radioactive amino acids, e.g., ^14C-labeled or ^3H-labeled, and solubilization of radioactive label can be measured with the use of liquid scintillation counting.

L6 muscle cells [4] = assay: Apoptosis by Death ELISA / DNA fragmentation in L6 muscle cells; assay type: cell-based, rat; conditions: cultured L6 muscle cells, Death ELISA assay
caspase 3 = assay: Caspase 3 activation in L6 muscle cells (immunoblot); assay type: cell-based, rat; conditions: FIG. 4
Excerpt: The caspase-specific proteins were separated by SDS-PAGE and visualized by immunoblotting with polyclonal antibodies prepared in response to the N-terminus of caspase 3.
Subsequently, proteins were separated and subjected to Western blot analysis using affinity-purified, polyclonal antibodies against the carboxy-terminus of actin (Sigma St. Louis, Mo.).

14 kDa actin fragment [5] = assay: Serum starvation-induced actin cleavage in L6 muscle cells; assay type: cell-based, rat; conditions: for serum starvation-induced actin cleavage: serum-starved L6 cells, 10 nM hormone added
Experimental: Physiological conditions trigger caspase 3-mediated actin cleavage . To examine whether a catabolic condition that is known to accelerate protein degradation in muscle cells also involves actin cleavage, L6 muscle cells were activated by 24 h of serum starvation (0.5% FBS) and cell lysates were prepared. […] Additional evidence for involvement of apoptosis-associated pathways was obtained by activating L6 cells using the serum starvation procedure and then adding insulin or IGF I because either hormone can prevent serum starvation induced apoptosis (24,25).

epitrochlearis muscles = assay: Protein degradation in incubated epitrochlearis muscles; design: species or system rat; conditions: epitrochlearis muscles in Krebs-Henseleit bicarbonate buffer with vs without inhibitor
Experimental: Rats were treated with streptozotocin and compared to pair-fed, rats injected with saline as described (4,26). Crude muscle lysates were isolated from acutely diabetic and control rats and examined for the presence of the 14 kDa actin fragment. A significant amount of this actin fragment was present in the muscle of diabetic rats compared to results from control rats. Finally, epitrochlearis muscles were incubated in Krebs-Henseleit bicarbonate buffer with or without the addition of the cell-permeable inhibitor of caspase 3, Ac-DEVD-Cho.

In the case of `Nc1ncnc2c1ncn2[C@@H]1O[C@H](COP(=O)(O)OP(=O)(O)OP(=O)(O)O)[C@@H](O)[C@H]1O` [ATP], the “amount of the 14 kDa peptide vs same extract without added ATP” value (14 kDa actin fragment [1]; 2 mM ATP added to extracts from staurosporine-treated cells, 3 hr, 37° C.) was “significantly reduced”.

With `CC(C)C[C@@H](C=O)NC(=O)[C@H](CC(C)C)NC(=O)[C@H](CC(C)C)NC(=O)OCc1ccccc1` [MG132] (Cbz-Leu-Leu-Leu-aldehyde) the “14 kDa actin peptide in intact L6 cells activated with staurosporine and treated with proteasome inhibitor” value (14 kDa actin fragment [2]; 24 hr staurosporine plus MG 132) was “readily detected”, the “14 kDa actin fragment in intact L6 cells, agent alone” value (14 kDa actin fragment [2]; L6 cells incubated 24 hr with single agent, then lysed) was “only a small amount” and the “amount of the 14 kDa actin peptide with proteasome inhibitor in presence of ATP” value (14 kDa actin fragment [1]; MG132 and ATP added to cell extracts before 3 hr incubation at 37° C.) was “greater amounts”.

For `CN[C@@H]1C[C@H]2O[C@@](C)([C@@H]1OC)n1c3ccccc3c3c4c(c5c6ccccc6n2c5c31)C(=O)NC4` [staurosporine], the “tyrosine release by extracts from staurosporine-treated cells vs control cell extracts” value (L6 muscle cells [3]) was “overall protein degradation is increased; also recorded: significantly higher”, the activation of apoptosis (L6 muscle cells [4]) was “activates apoptosis” and the “induction of caspase 3 activity” value (caspase 3) was “induces caspase 3 activity”.

For Ac-DEVD-Cho, the “accumulation of the 14 kDa actin fragment after serum starvation” value (14 kDa actin fragment [5]; 24 h serum starvation (0.5% FBS), inhibitor added to cell lysate during incubation) was “blocked the accumulation”, the “appearance of the 14 kDa actin fragment with caspase 3 inhibitor” value (14 kDa actin fragment [1]; extracts of L6 cells treated with 10 nM staurosporine or serum starvation, 5 μM inhibitor for 3 hr) was “blocked the appearance of the actin fragment” and the “reduction of the rate of muscle protein degradation” value (epitrochlearis muscles) was 30%.

Arg-Ala was tested, and the “amount of the 14 kDa actin fragment vs incubation with ATP alone” value (14 kDa actin fragment [1]; extracts of staurosporine-exposed L6 cells, 37° C., dipeptide (2 mM) and ATP) was “greater amount”.

In the case of IGF I, the “serum starvation-induced actin cleavage” value (14 kDa actin fragment [5]) was “effectively blocked”.

For insulin, the “serum starvation-induced actin cleavage” value (14 kDa actin fragment [5]) was “effectively blocked”.
